Tested on: Human immunodeficiency virus 1
Test: Inhibition of HIV-1 replication in human peripheral blood mononuclear cells.
Type: functional, organism-based

## [N-]=[N+]=N[C@H]1C[C@H](n2cc(C(F)(F)F)c(=O)[nH]c2=O)O[C@@H]1CO
  EC50: > 100 µM

## [N-]=[N+]=N[C@H]1C[C@H](n2cc(Br)c(=O)[nH]c2=O)O[C@@H]1CO
  EC50: 1 µM

## Cc1cn([C@H]2C[C@H](N=[N+]=[N-])[C@@H](CO)O2)c(=O)nc1N
  EC50: 5.1 µM

## [N-]=[N+]=N[C@H]1C[C@H](n2cc(F)c(N)nc2=O)O[C@@H]1CO
  EC50: 1 µM

## [N-]=[N+]=N[C@H]1C[C@H](n2ccc(N)nc2=O)O[C@@H]1CO
  EC50: 1.2 µM

## [N-]=[N+]=N[C@H]1C[C@H](n2cc(F)c(=O)[nH]c2=O)O[C@@H]1CO
  EC50: 4.8 µM

## [N-]=[N+]=N[C@@H]1CC(n2cc(I)c(=O)[nH]c2=O)O[C@@H]1CO (some centres not stated)
  EC50: 1.1 µM

## COc1cn([C@H]2C[C@H](N=[N+]=[N-])[C@@H](CO)O2)c(=O)[nH]c1=O
  EC50: 70 µM

## CSc1cn([C@H]2C[C@H](N=[N+]=[N-])[C@@H](CO)O2)c(=O)[nH]c1=O
  EC50: > 100 µM

## [N-]=[N+]=N[C@H]1C[C@H](n2cc(O)c(=O)[nH]c2=O)O[C@@H]1CO
  EC50: ~10 µM

## Cc1nn([C@H]2C[C@H](N=[N+]=[N-])[C@@H](CO)O2)c(=O)[nH]c1=O
  EC50: > 100 µM

## Cc1cn([C@H]2C[C@H](N=[N+]=[N-])[C@@H](CO)O2)c(=O)n(/C=C/C=O)c1=O
  EC50: 0.01 µM

## N#CSc1cn([C@H]2C[C@H](N=[N+]=[N-])[C@@H](CO)O2)c(=O)[nH]c1=O
  EC50: 5.1 µM

## N#CCOc1cn([C@H]2C[C@H](N=[N+]=[N-])[C@@H](CO)O2)c(=O)[nH]c1=O
  EC50: 16 µM

## C=CCOc1cn([C@H]2C[C@H](N=[N+]=[N-])[C@@H](CO)O2)c(=O)[nH]c1=O
  EC50: > 100 µM

## C#CCOc1cn([C@H]2C[C@H](N=[N+]=[N-])[C@@H](CO)O2)c(=O)[nH]c1=O
  EC50: 38 µM

## CCOc1cn([C@H]2C[C@H](N=[N+]=[N-])[C@@H](CO)O2)c(=O)[nH]c1=O
  EC50: 54 µM

## [N-]=[N+]=N[C@H]1C[C@H](n2cc(N)c(=O)[nH]c2=O)O[C@@H]1CO
  EC50: 6.2 µM

## CNc1cn([C@H]2C[C@H](N=[N+]=[N-])[C@@H](CO)O2)c(=O)[nH]c1=O
  EC50: > 100 µM

## CN(C)c1cn([C@H]2C[C@H](N=[N+]=[N-])[C@@H](CO)O2)c(=O)[nH]c1=O
  EC50: > 100 µM

## [N-]=[N+]=N[C@H]1C[C@H](n2ccc(=O)[nH]c2=O)O[C@@H]1CO [NAVURIDINE]
  EC50: 0.2 µM

## Cc1cn([C@H]2C[C@H](N=[N+]=[N-])[C@@H](CO)O2)c(=O)[nH]c1=O [ZIDOVUDINE]
  EC50: 0.002 µM
